From ChEMBL document CHEMBL4823324, “Discovery of BMS-986318, a Potent Nonbile Acid FXR Agonist for the Treatment of Nonalcoholic Steatohepatitis” (ACS Med Chem Lett, 2021) come the findings set out here.

Series [1] deals with T1, Peroxisome proliferator-activated receptor gamma (Homo sapiens, UniProt P37231).
T1 sequence (P37231 whole entry): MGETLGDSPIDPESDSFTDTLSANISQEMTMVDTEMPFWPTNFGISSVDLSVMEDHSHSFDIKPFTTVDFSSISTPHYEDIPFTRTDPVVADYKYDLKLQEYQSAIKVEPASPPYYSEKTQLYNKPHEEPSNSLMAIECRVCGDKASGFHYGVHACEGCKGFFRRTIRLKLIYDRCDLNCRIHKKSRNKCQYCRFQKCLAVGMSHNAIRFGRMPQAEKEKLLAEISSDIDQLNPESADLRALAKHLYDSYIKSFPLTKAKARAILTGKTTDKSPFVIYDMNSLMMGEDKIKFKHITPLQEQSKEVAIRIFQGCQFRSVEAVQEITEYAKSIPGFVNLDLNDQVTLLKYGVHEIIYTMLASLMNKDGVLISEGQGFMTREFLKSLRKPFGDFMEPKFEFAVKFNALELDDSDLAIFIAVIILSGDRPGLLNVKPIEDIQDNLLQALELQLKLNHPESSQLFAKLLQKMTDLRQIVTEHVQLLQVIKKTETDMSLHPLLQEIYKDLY
Put plainly: Activation of PPARgamma LBD (unknown origin) co-expressed with Gal4UAS-luciferase reporter in HEK293 cells incubated for 24 hrs by Steady-Glo luciferase reporter gene based luminescence analysis. It is filed as cell-based. For orientation: Reporter assays use an easily measured gene product as a stand-in for the process of interest.

The target in series [2] is T2, Oxysterols receptor LXR-beta (Homo sapiens, UniProt P55055).
T2 sequence (P55055 whole entry): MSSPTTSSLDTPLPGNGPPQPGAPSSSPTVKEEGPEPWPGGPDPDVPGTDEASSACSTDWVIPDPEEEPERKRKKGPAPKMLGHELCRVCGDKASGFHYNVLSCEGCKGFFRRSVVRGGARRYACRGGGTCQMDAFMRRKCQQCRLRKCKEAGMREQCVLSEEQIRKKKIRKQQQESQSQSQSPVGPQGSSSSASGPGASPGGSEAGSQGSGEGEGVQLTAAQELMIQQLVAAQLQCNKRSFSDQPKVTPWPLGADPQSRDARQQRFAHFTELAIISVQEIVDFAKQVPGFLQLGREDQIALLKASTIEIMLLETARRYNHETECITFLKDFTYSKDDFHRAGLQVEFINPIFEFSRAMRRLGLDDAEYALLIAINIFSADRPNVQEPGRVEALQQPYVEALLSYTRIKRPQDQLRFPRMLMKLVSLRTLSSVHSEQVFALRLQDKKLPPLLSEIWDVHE
Put plainly: Activation of human LXRbeta co-expressed with TK-luciferase reporter in African green monkey CV-1 cells incubated for overnight by Steady-Glo luciferase reporter gene based luminescence analysis. It is filed as cell-based.

Series [3] addresses T3, Glucocorticoid receptor (Homo sapiens, UniProt P04150).
T3 sequence (P04150 whole entry): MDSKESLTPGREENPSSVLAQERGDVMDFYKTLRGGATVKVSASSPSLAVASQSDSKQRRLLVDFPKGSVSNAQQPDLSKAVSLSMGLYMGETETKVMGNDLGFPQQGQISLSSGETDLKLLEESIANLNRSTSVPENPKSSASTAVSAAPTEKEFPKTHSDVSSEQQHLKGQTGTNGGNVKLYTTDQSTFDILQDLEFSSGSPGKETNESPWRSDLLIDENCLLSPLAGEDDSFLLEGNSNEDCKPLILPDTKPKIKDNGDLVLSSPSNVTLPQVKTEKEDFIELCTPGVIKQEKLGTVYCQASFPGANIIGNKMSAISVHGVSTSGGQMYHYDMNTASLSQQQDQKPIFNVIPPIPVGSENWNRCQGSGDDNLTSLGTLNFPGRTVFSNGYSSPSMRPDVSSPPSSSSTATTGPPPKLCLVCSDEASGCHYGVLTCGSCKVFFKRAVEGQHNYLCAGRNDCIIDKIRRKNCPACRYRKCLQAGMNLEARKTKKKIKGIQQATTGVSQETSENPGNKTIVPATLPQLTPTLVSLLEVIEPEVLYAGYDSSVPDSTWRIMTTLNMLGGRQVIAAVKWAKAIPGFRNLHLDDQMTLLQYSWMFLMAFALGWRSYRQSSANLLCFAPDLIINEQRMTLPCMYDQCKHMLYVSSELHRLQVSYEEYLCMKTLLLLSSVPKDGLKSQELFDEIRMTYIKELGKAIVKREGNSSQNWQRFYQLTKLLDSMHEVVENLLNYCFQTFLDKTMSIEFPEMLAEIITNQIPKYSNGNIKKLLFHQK
Put plainly: Activation of glucocorticoid receptor (unknown origin) by fluorescence polarization based competition assay. (In general: In fluorescence polarisation assays a small probe gives low polarisation when free and higher when bound to something large.)

A short description of series [4]: Cmax in C57B6 mouse at 2 mg/kg, po administered as suspension. It is filed as ADME, organism-based. The arrangement: route oral, dose 2 mg/kg. The conditions noted are these: in vivo.
Series [5] is described as follows: Half life in C57B6 mouse at 2 mg/kg, po administered as suspension. It is filed as ADME, organism-based. The conditions noted are these: in vivo.
In series [6] the target is T4, Nuclear receptor ROR-gamma (Homo sapiens, UniProt P51449).
T4 sequence (P51449 whole entry): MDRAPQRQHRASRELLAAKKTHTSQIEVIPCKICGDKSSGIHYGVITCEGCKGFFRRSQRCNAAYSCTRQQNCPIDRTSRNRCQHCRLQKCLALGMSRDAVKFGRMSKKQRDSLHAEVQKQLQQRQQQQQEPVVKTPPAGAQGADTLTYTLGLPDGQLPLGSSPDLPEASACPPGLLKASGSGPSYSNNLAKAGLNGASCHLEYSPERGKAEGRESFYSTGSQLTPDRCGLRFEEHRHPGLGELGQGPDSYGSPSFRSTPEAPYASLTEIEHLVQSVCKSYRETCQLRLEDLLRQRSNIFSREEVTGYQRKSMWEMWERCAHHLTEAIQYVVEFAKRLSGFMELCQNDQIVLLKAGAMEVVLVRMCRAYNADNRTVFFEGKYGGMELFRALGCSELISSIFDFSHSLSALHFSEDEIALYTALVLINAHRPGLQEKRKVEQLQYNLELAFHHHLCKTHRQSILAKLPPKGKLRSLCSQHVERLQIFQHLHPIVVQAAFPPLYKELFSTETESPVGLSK
The series can be described thus: Displacement of [3H]25-hydroxycholesterol from human N-terminal His-tagged RORgammaT LBD (262 to 508 residues) expressed in Escherichia coli preincubated for 10 mins followed by addition [3H]25-OH cholesterol and measured after 10 mins by scintillation proximity assay. For orientation: Loss of bound radioactivity is the signal in a displacement assay; it reports binding, not function.

SMILES strings stand for the structures. pEC50, pIC50: −log10 of the molar value.

As a reminder, the pEC50 is −log10 of the EC50, conventionally taken in molar units. Usually Cmax stands for the highest concentration seen after dosing. By half-life is commonly meant the time in which the quantity being followed falls by half. As usually defined, the pIC50 is the IC50 on a negative log10 scale, so that one unit is a factor of ten. For the molecule `O=C(O)c1cc(C(F)(F)F)c2cc(N3CCC4(C=C(c5c(-c6c(Cl)cncc6Cl)noc5C5CC5)C4)CC3)ccc2n1`, the negative-log EC50 (pEC50) in series [1], in series [2] and in series [3] was < 4.40 throughout. In addition, the peak level in series [4] (Cmax) was 1030 nM. In series [5], the half-life was 2 h. Moreover, the pIC50 in series [6] was < 4.40.
